What was measured:
Type in all cases: cell-based
LnCap = assay: Chemoresistance: growth under adhesion with etoposide, p21 cell cycle arrest, LnCap; conditions: FIG. 2B
Description: (§1) Eliglustat alone has no effect.
(§2) The cells were treated with etoposide at a concentration ranging between 10 and 40 μM for 12-16 hours.
(§3) The p21 levels were determined by immunoblotting as cycle arrest index.

DU145 = assay: Chemoresistance: growth under adhesion with etoposide, p21 cell cycle arrest, DU145; conditions: FIG. 2B
Description: as §1, §2, §3

[1] = test system: tumour lines deriving from the same tumour type which do not express GOLPH3; assay: Growth under anchorage-independent conditions, lines not expressing GOLPH3; conditions: 0 to 50 micromolar; lines of same tumour type not expressing GOLPH3; FIG. 2A1 middle series
Description: (§4) The growth of tumour lines was evaluated under different experimental conditions. 12 tumour lines, divided into six pairs derived from six different types of tumour, were used. […] The growth of the lines was observed under 3 experimental conditions: 1) absence of anchorage to the matrix; 2) exposure to chemotherapy agents; 3) undisturbed growth under adhesion to the matrix.
(§5) Growth under conditions of adhesion to the matrix and absence of stress (bottom series, black) of the lines expressing an oncogene belonging to the GOLPH3 cluster is not inhibited by miglustat. Inhibition of GSL synthesis was about 70% (at 50 micromolar miglustat).
(§6) GCS enzyme inhibitors such as miglustat, eliglustat and N-[(1R,2R)-2-(2,3-dihydro-1,4-benzodioxin-6-yl)-2-hydroxy-1-(1-pyrrolidinylmethyl)ethyl]-nonanamide (Genz-123346), or P-gp inhibitors such as zosuquidar, were used at two or three different concentrations, depending on the type of dose, to blockade glycosphingolipid biosynthesis in various tumour cells. For the growth assays, new media supplemented with the medicaments were added every three days.
(§7) • 1. Growth in the absence of anchorage (anchorage-independent) • 2. Growth of isolated cell clones (clonogenic analysis) • 3. Growth under adhesion (under adhesion).
(§8) Both the anchorage-independent and clonogenic growth tests were conducted as described previously in Rizzo et al., EMBOJ, 2021. […]

[2] = test system: prostate, colon and liver tumour lines expressing an oncogene belonging to the GOLPH3 cluster; assay: Growth under anchorage-independent conditions, lines expressing a GOLPH3 cluster oncogene; conditions: concentrations 0 to 50 micromolar, FIG. 2A1 top series
Description: as §4, §5, §6, §7, §8

[3] = test system: lines expressing an oncogene belonging to the GOLPH3 cluster; assay: Growth under adhesion to the matrix and absence of stress; conditions: lines expressing a GOLPH3 cluster oncogene; FIG. 2A1 bottom series
Description: as §4, §5, §6, §7, §8

GSL synthesis = assay: Glycosphingolipid metabolism (radiolabelling of cell sphingosine, TLC); conditions: at 50 micromolar miglustat
Source text: To analyse the glycosphingolipid metabolites we used a method based on radiolabelling of cell sphingosine followed by extraction of metabolites and separation by thin-layer chromatography (TLC) as previously described in Rizzo et al., EMOJ, 2021.

## CCCCCCCC(=O)N[C@H](CN1CCCC1)[C@H](O)c1ccc2c(c1)OCCO2 [eliglustat]
LnCap; co-treatment with etoposide
  effect of co-treatment on etoposide-induced cell cycle arrest: does not modify said situation
DU145; DU145, co-treatment with etoposide
  effect of co-treatment on resistance to etoposide: loses said resistance
DU145; without etoposide
  effect of inhibitor alone: no effect

## COc1cc([C@@H]2c3cc4c(cc3[C@@H](O[C@@H]3O[C@@H]5CO[C@@H](C)O[C@H]5[C@H](O)[C@H]3O)[C@H]3COC(=O)[C@H]23)OCO4)cc(OC)c1O [etoposide]
LnCap; not expressing a GOLPH3 cluster oncogene
  cell cycle arrest (p21 synthesis), etoposide alone: cell cycle arrest (strong increase in p21 synthesis)
DU145; DU145, expressing a GOLPH3 cluster oncogene
  response to etoposide alone (chemoresistance): resistant

## CCCCN1C[C@H](O)[C@@H](O)[C@H](O)[C@H]1CO [miglustat]
[1]
  growth under anchorage-independent conditions: not inhibited
[2]
  growth under anchorage-independent conditions: inhibited
[3]
  growth under conditions of adhesion to the matrix and absence of stress: not inhibited
GSL synthesis
  inhibition at 50 µM: ~70%

Source: patent publication US20260240828A1, “GLYCOSPHINGOLIPID BIOSYNTHESIS INHIBITORS FOR TREATMENT OF TUMOURS DEPENDENT ON THE ONCOGENE GOLPH3 AND ON ONCOGENES OF THE GOLPH3 CLUSTER” (Golgenia S.R.L., priority 2023, published 2026)
